In publication PMC7729733, “Biological Properties of New Chiral 2-Methyl-5,6,7,8-tetrahydroquinolin-8-amine-based Compounds” (Molecules, 2020) one finds IC50 and melting point data, which are given here for nine compounds.

Each structure is given as a SMILES string.

In data set [1] the test system is MSTO-211H (biphasic mesothelioma). As to the kind of experiment: Cell growth assay (Trypan blue), MSTO-211H cells. It is filed as cell-based, human. The following applies: Homo sapiens, MSTO-211H, 72 h, racemic compounds; Trypan blue. Here is the method:
(§1) A2780 (human ovarian carcinoma) and HT-29 (human colorectal adenocarcinoma) were grown in RPMI 1640 (Sigma Chemical Co., St. Louis, MO, USA), and MSTO-211H (human biphasic mesothelioma) were grown in RPMI 1640 (Sigma Chemical Co.) supplemented with 2.38 g/L Hepes, 0.11 g/L pyruvate sodium, and 2.5 g/L glucose. Then, 1.5 g/L NaHCO3, 10% heat-inactivated fetal calf serum (Biowest), 100 U/mL penicillin, 100 μg/mL streptomycin, and 0.25 μg/mL amphotericin B (Sigma Chemical Co.) were added to the media. The cells were cultured at 37 °C in a moist atmosphere of 5% carbon dioxide in air. Cells (2.5–3 × 10^4) were seeded into each well of a 24-well cell culture plate. After incubation for 24 h, various concentrations of the test agents were added to the complete medium and incubated for a further 72 h. A Trypan blue assay was performed to determine cell viability. Cytotoxicity data were expressed as IC50 values, i.e., the concentration of the test compound able to induce a 50% reduction in cell number compared with control cultures.

The subject of data set [2] is HT-29 (colorectal adenocarcinoma). As to the kind of experiment: Cell growth assay (Trypan blue), HT-29 cells. The format is cell-based, human. The following applies: Homo sapiens, HT-29, racemic compounds, 72 h. How it is done:
as §1

The test system of data set [3] is CEM (human T-lymphocyte cells). As to the kind of experiment: Cell growth assay, CEM cells. It is filed as cell-based. The following applies: racemic compounds, 72 h, Coulter counter. Here is the method:
(§2) HeLa (human cervix carcinoma) and CEM (human T-lymphoblast) were grown in Dulbecco’s modified Eagle’s medium (DMEM; Gibco, Carlsbad, CA, USA), supplemented with 0.01 M Hepes (Gibco) and 1 mM sodium pyruvate (Gibco) in a humidified 5% CO2 incubator at 37 °C. HMEC-1 (human microvascular endothelial cells) was maintained in Dulbecco’s modified Eagle’s medium (DMEM)/low glucose containing glutamine (2 mM). The media were supplemented with 10% fetal bovine serum (FBS, Gibco), penicillin ([…]), streptomycin ([…]), and amphotericin B ([…]). CEM cells were seeded in 96-well plates at 60,000 cells/well in the presence of different concentrations of the compounds, and allowed to proliferate for 72 h. HeLa cells were seeded in 96-well plates at 15,000 cells/well in the presence of different concentrations of the compounds. After 4 days of incubation, the cells were trypsinized and counted. HMEC-1 cells were seeded in 48-well plates at 20,000 cells/well. After 24 h, the compounds were added at different concentrations. The cells were allowed to proliferate for 4 days in the presence of the compounds, trypsinized, and counted. All cells were counted by means of a Coulter counter (Analis, Belgium).

In data set [4] the test system is HeLa (human cervix carcinoma cells). The data set is described as follows: Cell growth assay, HeLa cells. The format is cell-based. The conditions noted are these: 96 h, racemic compounds, 4 days, Coulter counter. Here is the method:
as §2

The subject of data set [5] is HMEC-1 (human dermal microvascular endothelial cells). As to the kind of experiment: Cell growth assay, HMEC-1 cells. It is filed as cell-based. The following applies: HMEC-1, 96 h, racemic compounds, 4 days, Coulter counter. Here is the method:
as §2

The test system of data set [6] is A2780 (ovarian carcinoma). The data set is described as follows: Cell growth assay (Trypan blue), A2780 cells. The following applies: Homo sapiens, A2780, 72 h, racemic compounds; 72 h; Trypan blue. The format is cell-based, human. Here is the method:
as §1

The target in data set [7] is quinone reductase 2 (QR2). Also on record: method as in PMID 22716080, PMID 16765324. The conditions noted are these: read-out: QR2 inhibitory activity IC50; cited from earlier work.

The compound `Cc1ccc(O)c(/C=N/C2CCCc3ccc(C)nc32)c1` (stereo not drawn) [Compound 2a, (E)-4-methyl-2-(((2-methyl-5,6,7,8-tetrahydroquinolin-8-yl)imino)methyl)phenol] registered a melting point of 101.8 to 103.4 °C. In data set [1], this compound came in with an IC50 of 95 ± 5 µM. This compound also gave an IC50 in data set [2] greater than 100 µM. In data set [3], this compound displayed an IC50 greater than 100 µM. For the same compound, the IC50 in data set [4] is greater than 100 µM. Further, in data set [5], the IC50 is greater than 100 µM. The same compound showed an IC50 in data set [6] greater than 100 µM.

For `Cc1ccc2c(n1)C(NCc1ccccn1)CCC2` (stereo not drawn) [Compound 3b, 2-methyl-N-(pyridin-2-ylmethyl)-5,6,7,8-tetrahydroquinolin-8-amine], the melting point was in the range of 87.8 to 89.2 °C. The compound further registered an IC50 in data set [1] of 15 ± 3 µM. In data set [2], the half-inhibitory concentration (IC50) was 42 ± 6 µM. In data set [3], this compound returned an IC50 greater than 100 µM. The IC50 in data set [4] is greater than 100 µM. The compound further had an IC50 in data set [5] greater than 100 µM. This compound showed an IC50 in data set [6] of 11 ± 3 µM.

Turning to `CN1C(=O)c2cc(C(N)=O)nc3c(N)c(Cl)c(N)c1c23` [Compound 4, ammosamide B], in data set [7], the IC50 is 0.061 µM.

In turn, `Cc1ccc2c(n1)C(/N=C/c1cn(C)cn1)CCC2` (stereo not drawn) [Compound 4a, (E)-1-(1-methyl-1H-imidazol-4-yl)-N-(2-methyl-5,6,7,8-tetrahydroquinolin-8-yl)methanimine] registered a melting point of 103.2 to 104.5 °C. The IC50 in data set [1] was 14 ± 1 µM. This compound had an IC50 in data set [2] of 42 ± 8 µM. The IC50 in data set [3] is greater than 100 µM. The IC50 in data set [4] is greater than 100 µM. In data set [5], this compound showed an IC50 greater than 100 µM. This compound had an IC50 in data set [6] of 11 ± 2 µM.

`Cc1ccc2c(n1)C(NCc1cn(C)cn1)CCC2` (stereo not drawn) [Compound 4b, 2-methyl-N-((1-methyl-1H-imidazol-4-yl)methyl)-5,6,7,8-tetrahydroquinolin-8-amine] had a melting point of 90.3 to 92.2 °C. Moreover, the IC50 in data set [1] was greater than 100 µM. Also, the IC50 in data set [2] is greater than 100 µM. The IC50 in data set [3] is greater than 100 µM. Further, the IC50 in data set [4] was greater than 100 µM. The compound further displayed an IC50 in data set [5] of 89 ± 2 µM. In data set [6], this compound had an IC50 greater than 100 µM.

For `CNc1c(Cl)c(N)c2c3c(cc(C(N)=O)nc13)C(=O)N2C` [Compound 5], in data set [7], the IC50 was 0.0041 µM.

In turn, `Cc1ccc2c(n1)C(NCc1ncc[nH]1)CCC2` (stereo not drawn) [Compound 5b, N-((1H-imidazol-2-yl)methyl)-2-methyl-5,6,7,8-tetrahydroquinolin-8-amine] registered a melting point of 86.7 to 88.1 °C. This compound also had an IC50 in data set [1] of 44 ± 5 µM. The same compound returned an IC50 in data set [2] of 73 ± 6 µM. In data set [3], this compound had an IC50 of 51 ± 13 µM. Further, 71 ± 3 µM corresponded to half-maximal inhibition in data set [4] (IC50). Further, the IC50 in data set [5] is 53 µM. This compound registered an IC50 in data set [6] of 38 ± 7 µM.

The compound `Cc1ccc2c(n1)C(/N=C/c1cc3c4c(c1O)CCCN4CCC3)CCC2` (stereo not drawn) [Compound 6a, (E)-9-(((2-methyl-5,6,7,8-tetrahydroquinolin-8-yl)imino)methyl)-2,3,6,7-tetrahydro-1H,5H-pyrido [3,2,1-ij]quinolin-8-ol] displayed a melting point of 104.2 to 105.8 °C. The compound also yielded an IC50 in data set [1] of 25 ± 11 µM. This compound gave an IC50 in data set [2] of 46 ± 7 µM. In data set [3], this compound yielded an IC50 of 64 ± 32 µM. In data set [4], this compound displayed an IC50 greater than 100 µM. This compound displayed an IC50 in data set [5] of 82 ± 4 µM. In data set [6], this compound displayed an IC50 of 36 ± 4 µM.

Take `Cc1ccc2c(n1)C(NCc1cc3c4c(c1O)CCCN4CCC3)CCC2` (stereo not drawn) [Compound 6b, 9-(((2-methyl-5,6,7,8-tetrahydroquinolin-8-yl)amino)methyl)-2,3,6,7-tetrahydro-1H,5H-pyrido[3 ,2,1-ij]quinolin-8-ol]: the melting point was in the range of 94.3 to 95.5 °C. This compound also gave an IC50 in data set [1] of 77 ± 7 µM. For the same compound, inhibition in data set [2] was half-maximal at 74 ± 3 µM (IC50). The compound further gave an IC50 in data set [3] of 77 ± 32 µM. The compound further yielded an IC50 in data set [4] greater than 100 µM. The same compound returned an IC50 in data set [5] of 81 ± 26 µM. In addition, in data set [6], half-maximal inhibition (IC50) required 36 ± 4 µM.

The term IC50 denotes the concentration that inhibits the measured activity by half. The term melting point denotes the temperature of the solid-liquid transition.
